ChEMBL document CHEMBL1123432, “Methotrexate analogues. 28. Synthesis and biological evaluation of new gamma-monoamides of aminopterin and methotrexate” (J Med Chem, 1986)
“And” between values parts separate entries of the source, which are not always exact repeats. Identical values can stand only once.

How the values were obtained:
[1] = tested on: L1210; test: Compound was tested for its inhibitory concentration to inhibit the growth of wild type L1210 cells.; type: functional, cell-based, Mus musculus
[2] = target: T1, Dihydrofolate reductase (Mus musculus, UniProt P00375); test: Compound was tested for its inhibitory concentration to inhibit the enzyme Dihydro Folate Reductase ( DHFR ) from murine L1210 leukemia cells.; type: cell-based
T1 sequence (P00375 whole entry): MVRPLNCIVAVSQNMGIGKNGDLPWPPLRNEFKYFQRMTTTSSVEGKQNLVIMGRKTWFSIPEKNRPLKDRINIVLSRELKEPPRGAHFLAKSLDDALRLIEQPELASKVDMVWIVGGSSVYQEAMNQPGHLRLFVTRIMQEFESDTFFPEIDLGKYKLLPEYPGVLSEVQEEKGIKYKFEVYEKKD

[3] = tested on: L1210; test: Compound was tested for its inhibitory concentration to inhibit the growth of wild type L1210 cells and a subline ( L1210 / R81 ).; type: functional, cell-based; conditions: Mus musculus
[4] = tested on: L1210; test: cells; conditions: Mus musculus
Description: Compound was tested for its inhibitory concentration to inhibit the growth of wild type L1210 cells; Range=0.01 to 0.03

[5] = species: Homo sapiens; test: Compound was tested for its inhibitory concentration against human leukemic lymphoblasts (CEM Cells) and a resistant subline (CEM / MTX).; type: functional; conditions: CCRF-CEM
[6] = species: Homo sapiens; test: Compound was tested for its inhibitory concentration against human leukemic lymphoblasts (CEM Cells); type: functional; conditions: CCRF-CEM
[7] = tested on: Mus musculus; test: Median Survival days of mice infected with L1210 leukemia cells at dose 20 mg/kg relative to that of 9 days for control in expt 1; type: functional
[8] = species: Mus musculus; test: Compound was tested against weight change in mice with L1210 leukemia cells on 10 th Day at Dose 80 mg / kg; conditions: at 80 mg/kg
[9] = tested on: Mus musculus; test: Median Survival days of mice infected with L1210 leukemia cells at dose 40 mg/kg relative to that of 9 days for control in expt 1; Toxic; type: functional, organism-based; parameters: dose 40 mg/kg
[10] = target: T1, Dihydrofolate reductase; test: biochemical
Description: Compound was tested for its inhibitory concentration to inhibit the enzyme Dihydro Folate Reductase (DHFR) from murine L1210 leukemia cells.

[11] = tested on: Mus musculus; test: Median Survival days of mice infected with L1210 leukemia cells at dose 10 mg/kg relative to that of 9 days for control in expt 1; type: functional
[12] = tested on: L1210; test: Compound was tested for its inhibitory concentration to inhibit the growth of wild type L1210 cells; Mean of four separate assays; type: functional, cell-based; conditions: Mus musculus
[13] = tested on: Mus musculus; test: Increase in life span of mice with L1210 leukemia cells at a dose of 10 mg/kg in expt 1; type: functional
[14] = species: Homo sapiens; test: Compound was tested for its inhibitory concentration against human leukemic lymphoblasts (CEM Cells).; type: functional; conditions: CCRF-CEM
[15] = tested on: Mus musculus; test: Increase in life span of mice with L1210 leukemia cells at a dose of 80 mg/kg in expt 2; Toxic; type: functional, organism-based; parameters: dose 80 mg/kg
[16] = tested on: Mus musculus; test: Increase in life span of mice with L1210 leukemia cells at a dose of 40 mg/kg in expt 2; Toxic; type: functional, organism-based; parameters: dose 40 mg/kg
[17] = tested on: L1210; test: Compound was tested for its inhibitory concentration to inhibit the growth of wild type L1210 cells and a subline (L1210 / R81).; type: functional, cell-based; conditions: Mus musculus
[18] = species: Mus musculus; test: Compound was tested against weight change in mice with L1210 leukemia cells on 10 th Day at Dose 40 mg / kg; conditions: at 40 mg/kg
[19] = species: Mus musculus; test: Compound was tested against weight change in mice with L1210 leukemia cells on 7 th Day at Dose 10 mg / kg; type: functional; conditions: at 10 mg/kg
[20] = target: T2, Dihydrofolate reductase (Mus musculus) (UniProt P00375); conditions: L1210
T2 sequence (whole entry): T1 sequence (P00375 whole entry)
Description: Compound was tested for inhibition of the enzyme DiHydroFolate Reductase (DHFR) from murine L1210 leukemia cells

[21] = tested on: Mus musculus; test: Increase in life span of mice with L1210 leukemia cells at a dose of 80 mg/kg in expt 2; type: functional
[22] = species: Mus musculus; test: Compound was tested against weight change in mice with L1210 leukemia cells on 10 th Day at Dose 20 mg / kg; conditions: at 20 mg/kg
[23] = tested on: Mus musculus; test: Median Survival days of mice infected with L1210 leukemia cells at dose 80 mg/kg relative to that of 9 days for control in expt 1; Toxic; type: functional, organism-based; parameters: dose 80 mg/kg
[24] = tested on: Mus musculus; test: Increase in life span of mice with L1210 leukemia cells at a dose of 50 mg/kg; type: functional
[25] = tested on: Mus musculus; test: Median Survival days of mice infected with L1210 leukemia cells at dose 70 mg/kg relative to that of 10 days for control; Toxic; type: functional, organism-based; parameters: dose 70 mg/kg
[26] = species: Mus musculus; test: Compound was tested against weight change in mice with L1210 leukemia cells on 10 th Day at Dose 70 mg / kg; conditions: at 70 mg/kg
[27] = tested on: Mus musculus; test: Median Survival days of mice infected with L1210 leukemia cells at dose 70 mg/kg relative to that of 10 days for control; type: functional
[28] = species: Mus musculus; test: Compound was tested against weight change in mice with L1210 leukemia cells on 10 th Day at Dose 60 mg / kg; conditions: at 60 mg/kg
[29] = tested on: Mus musculus; test: Increase in life span of mice with L1210 leukemia cells at a dose of 80 mg/kg; type: functional
[30] = species: Mus musculus; test: Compound was tested against weight change in mice with L1210 leukemia cells on 10 th Day at Dose 50 mg / kg; conditions: at 50 mg/kg
[31] = tested on: Mus musculus; test: Increase in life span of mice with L1210 leukemia cells at a dose of 80 mg/kg; Toxic; type: functional, organism-based; parameters: dose 80 mg/kg
[32] = tested on: Mus musculus; test: Median Survival days of mice infected with L1210 leukemia cells at dose 60 mg/kg relative to that of 10 days for control; type: functional
[33] = tested on: Mus musculus; test: Median Survival days of mice infected with L1210 leukemia cells at dose 50 mg/kg relative to that of 10 days for control; type: functional

Question: With `Nc1nc(N)c2nc(CNc3ccc(C(=O)NC(CCC(=O)Nc4ccc(O)c(O)c4)C(=O)O)cc3)cnc2n1` (centres undefined) as the compound, how does the IC50 ([1]; l1210) read?
Answer: Its IC50 is 37 nM and 6 nM.

Question: And the IC50 [2]?
Answer: Its IC50 is 57 nM.

Question: And the IC50 [3]?
Answer: The IC50 was 23000 nM.

Question: Which results are given for `CN(Cc1cnc2nc(N)nc(N)c2n1)c1ccc(C(=O)N[C@@H](CCC(=O)O)C(=O)O)cc1` [METHOTREXATE]?
Answer: IC50 [4]: 30 nM; IC50 [5]: 6600 nM; IC50 [6]: 32 nM

Question: Which IC50 ([1]; l1210) does the source give for `CN(Cc1cnc2nc(N)nc(N)c2n1)c1ccc(C(=O)NC(CCC(=O)Nc2ccc(O)c(O)c2)C(=O)O)cc1` (centres undefined) here?
Answer: The IC50 was 30 nM and 8.4 nM.

Question: And the IC50 [2]?
Answer: The IC50 was 31 nM.

Question: What about the IC50 [3] of the same compound?
Answer: Its IC50 is 38000 nM.

Question: For `Nc1nc(N)c2nc(CNc3ccc(C(=O)NC(CCC(=O)Nc4ccc5c(c4)OCO5)C(=O)O)cc3)cnc2n1` (centres undefined), which Survival [7] is on record?
Answer: Its Survival is 14 days.

Question: And the Weight change [8]?
Answer: The Weight change was -26%.

Question: And the Survival [9]?
Answer: The Survival was “Toxic”.

Question: And the IC50 ([1]; Mus musculus, L1210)?
Answer: The IC50 was 3.2 nM.

Question: And the IC50 [10]?
Answer: The IC50 was 45 nM.

Question: What about the Survival [11] of the same compound?
Answer: The Survival was 12 days.

Question: And the IC50 [5]?
Answer: The IC50 was 1000 nM.

Question: And the IC50 [12]?
Answer: Its IC50 is 0.39 nM.

Question: What about the ILS at 10 mg/kg [13] of the same compound?
Answer: Its ILS at 10 mg/kg is 56%.

Question: What about the IC50 [14] of the same compound?
Answer: The IC50 was 140 nM.

Question: What about the ILS [15] of the same compound?
Answer: Its ILS is “Toxic”.

Question: And the ILS [16]?
Answer: The ILS was “Toxic”.

Question: And the IC50 [17]?
Answer: The IC50 was 28000 nM.

Question: What about the Weight change [18] of the same compound?
Answer: Its Weight change is -20%.

Question: What about the Weight change [19] of the same compound?
Answer: Its Weight change is 7%.

Question: What about the IC50/[E] [20] of the same compound?
Answer: Its IC50/[E] is 1.1.

Question: What about the ILS at 80 mg/kg [21] of the same compound?
Answer: Its ILS at 80 mg/kg is 33%.

Question: What about the Weight change [22] of the same compound?
Answer: The Weight change was 3%.

Question: And the Survival [23]?
Answer: Its Survival is “Toxic”.

Question: Which ILS at 50 mg/kg [24] does the source give for `Nc1nc(N)c2nc(CNc3ccc(C(=O)NC(CCC(=O)NCc4ccc(Cl)c(Cl)c4)C(=O)O)cc3)cnc2n1` (centres undefined) here?
Answer: The ILS at 50 mg/kg was 70%.

Question: And the Weight change [8]?
Answer: The Weight change was -16%.

Question: And the Survival [25]?
Answer: Its Survival is “Toxic”.

Question: And the IC50 ([1]; Mus musculus, L1210)?
Answer: Its IC50 is 46 nM.

Question: What about the IC50 ([1]; l1210) of the same compound?
Answer: The IC50 was 34 nM.

Question: And the IC50 [10]?
Answer: The IC50 was 130 nM.

Question: And the Weight change [26]?
Answer: The Weight change was -3%.

Question: What about the Survival [27] of the same compound?
Answer: Its Survival is 21 days.

Question: What about the IC50 [17] of the same compound?
Answer: The IC50 was 32000 nM.

Question: And the Weight change [28]?
Answer: The Weight change was 0%.

Question: And the IC50/[E] [20]?
Answer: The IC50/[E] was 3.3.

Question: What about the ILS at 80 mg/kg [29] of the same compound?
Answer: Its ILS at 80 mg/kg is 50%.

Question: And the Weight change [30]?
Answer: The Weight change was 2%.

Question: And the ILS [31]?
Answer: Its ILS is “Toxic”.

Question: And the Survival [32]?
Answer: Its Survival is 17 days.

Question: What about the Survival [33] of the same compound?
Answer: The Survival was 15 days.
